According to PubChem BioAssay AID1963985 (Molecular Pharmacology Branch, DTP, NCI, 2024):
One block for each compound: values may come before it.

System: 252836-082-R-J2-PDC tumor spheroids, viability
Assay: Anticancer human tumor 252836-082-R-J2-PDC patient-derived head and neck squamous cell carcinoma cell line growth inhibition [PI3K]
Details: spheroids with HUVEC and MSC; for viability, T/C: stronger effect = lower value
Procedure, shortened: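 Spheroid viability read-out. Co-cultures contained the tumor line plus HUVEC and human MSCs. Each agent was paired with a PI3K inhibitor (inavolisib, alpelisib, duvelisib, copanlisib) across half-log dilutions starting at clinical Cmax, or at 10 microM when Cmax was unknown.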

[1] = curve of first compound, second compound 0.0316 µM
[2] = curve of first compound, second compound 0.1 µM
[3] = curve of first compound, second compound 0.316 µM
[4] = curve of first compound, second compound 1 µM
[5] = curve of first compound, second compound 3.16 µM
[6] = curve of first compound, second compound 10 µM
[7] = second compound 0.0316 µM, first compound 0.0316 µM
[8] = second compound 0.0316 µM, first compound 0.1 µM
[9] = second compound 0.0316 µM, first compound 0.316 µM
[10] = second compound 0.0316 µM, first compound 1 µM
[11] = second compound 0.1 µM, first compound 0.0316 µM
[12] = second compound 0.1 µM, first compound 0.1 µM
[13] = second compound 0.1 µM, first compound 0.316 µM
[14] = second compound 0.1 µM, first compound 1 µM
[15] = second compound 0.316 µM, first compound 0.0316 µM
[16] = second compound 0.316 µM, first compound 0.1 µM
[17] = second compound 0.316 µM, first compound 0.316 µM
[18] = second compound 0.316 µM, first compound 1 µM
[19] = second compound 1 µM, first compound 0.0316 µM
[20] = second compound 1 µM, first compound 0.1 µM
[21] = second compound 1 µM, first compound 0.316 µM
[22] = second compound 1 µM, first compound 1 µM
[23] = second compound 3.16 µM, first compound 0.0316 µM
[24] = second compound 3.16 µM, first compound 0.1 µM
[25] = second compound 3.16 µM, first compound 0.316 µM
[26] = second compound 3.16 µM, first compound 1 µM
[27] = second compound 10 µM, first compound 0.0316 µM
[28] = second compound 10 µM, first compound 0.1 µM
[29] = second compound 10 µM, first compound 0.316 µM
[30] = second compound 10 µM, first compound 1 µM
[31] = second compound 0.0316 µM, first compound 3.16 µM
[32] = second compound 0.0316 µM, first compound 10 µM
[33] = second compound 0.1 µM, first compound 3.16 µM
[34] = second compound 0.1 µM, first compound 10 µM
[35] = second compound 0.316 µM, first compound 3.16 µM
[36] = second compound 0.316 µM, first compound 10 µM
[37] = second compound 1 µM, first compound 3.16 µM
[38] = second compound 1 µM, first compound 10 µM
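Further: spheroids exposed to agents for seven days before readout.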
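Wherever viability, T/C is given: percent of vehicle DMSO control viability so 100% = untreated growth.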

IC50 [1]: > 1000 nM
IC50 [2]: > 1000 nM
IC50 [3]: > 1000 nM
IC50 [4]: > 1000 nM
IC50 [5]: < 3.16 nM
IC50 [6]: < 3.16 nM
SMILES: CCN1CCN(Cc2ccc(Nc3ncc(F)c(-c4cc(F)c5nc(C)n(C(C)C)c5c4)n3)nc2)CC1 + Cc1nc(NC(=O)N2CCCC2C(N)=O)sc1-c1ccnc(C(C)(C)C(F)(F)F)c1
viability, T/C (second compound 0.0316 µM, first compound 0.00316 µM): 101%
viability, T/C (second compound 0.0316 µM, first compound 0.01 µM): 94.1%
viability, T/C [7]: 80.8%
viability, T/C [8]: 80.5%
viability, T/C [9]: 91.3%
viability, T/C [10]: 87%
viability, T/C (second compound 0.1 µM, first compound 0.00316 µM): 84.2%
viability, T/C (second compound 0.1 µM, first compound 0.01 µM): 85%
viability, T/C [11]: 77.8%
viability, T/C [12]: 80.2%
viability, T/C [13]: 85.7%
viability, T/C [14]: 86.3%
viability, T/C (second compound 0.316 µM, first compound 0.00316 µM): 67.8%
viability, T/C (second compound 0.316 µM, first compound 0.01 µM): 74.8%
viability, T/C [15]: 64.7%
viability, T/C [16]: 69.9%
viability, T/C [17]: 59%
viability, T/C [18]: 68%
viability, T/C (second compound 1 µM, first compound 0.00316 µM): 58.3%
viability, T/C (second compound 1 µM, first compound 0.01 µM): 74.9%
viability, T/C [19]: 59.4%
viability, T/C [20]: 61.9%
viability, T/C [21]: 62.5%
viability, T/C [22]: 46.4%
viability, T/C (second compound 3.16 µM, first compound 0.00316 µM): 49.1%
viability, T/C (second compound 3.16 µM, first compound 0.01 µM): 39.4%
viability, T/C [23]: 43.5%
viability, T/C [24]: 40.2%
viability, T/C [25]: 44.2%
viability, T/C [26]: 43.1%
viability, T/C (second compound 10 µM, first compound 0.00316 µM): 35.4%
viability, T/C (second compound 10 µM, first compound 0.01 µM): 42.1%
viability, T/C [27]: 27.5%
viability, T/C [28]: 40.1%
viability, T/C [29]: 32%
viability, T/C [30]: 21.1%

IC50 [1]: 1150 nM
IC50 [2]: 1100 nM
IC50 [3]: 991 nM
IC50 [4]: 980 nM
IC50 [5]: 916 nM
IC50 [6]: 742 nM
SMILES: CC(C)NCC(C(=O)N1CCN(c2ncnc3c2C(C)CC3O)CC1)c1ccc(Cl)cc1 (configuration not stated) + CC(Nc1ncnc2nc[nH]c12)c1cc2cccc(Cl)c2c(=O)n1-c1ccccc1
viability, T/C [7]: 99.4%
viability, T/C [8]: 89.4%
viability, T/C [9]: 76.7%
viability, T/C [10]: 54.5%
viability, T/C [31]: 28.6%
viability, T/C [32]: 22.1%
viability, T/C [11]: 97.9%
viability, T/C [12]: 81.1%
viability, T/C [13]: 77.4%
viability, T/C [14]: 49%
viability, T/C [33]: 33.2%
viability, T/C [34]: 21.7%
viability, T/C [15]: 83.3%
viability, T/C [16]: 83.1%
viability, T/C [17]: 85%
viability, T/C [18]: 48.3%
viability, T/C [35]: 38.1%
viability, T/C [36]: 20.7%
viability, T/C [19]: 95.4%
viability, T/C [20]: 98.1%
viability, T/C [21]: 65.3%
viability, T/C [22]: 51.5%
viability, T/C [37]: 33.6%
viability, T/C [38]: 20.5%
viability, T/C [23]: 75.7%
viability, T/C [24]: 74.9%
viability, T/C [25]: 75%
viability, T/C [26]: 46.5%
viability, T/C (second compound 3.16 µM, first compound 3.16 µM): 35.4%
viability, T/C (second compound 3.16 µM, first compound 10 µM): 24.2%
viability, T/C [27]: 71.3%
viability, T/C [28]: 69.2%
viability, T/C [29]: 59.6%
viability, T/C [30]: 46.3%
viability, T/C (second compound 10 µM, first compound 3.16 µM): 30.4%
viability, T/C (second compound 10 µM, first compound 10 µM): 16.6%

IC50 (curve of first compound, second compound 0.00316 µM): 710 nM
IC50 (curve of first compound, second compound 0.01 µM): 749 nM
IC50 [1]: 631 nM
IC50 [2]: 234 nM
IC50 [3]: 173 nM
IC50 [4]: < 31.6 nM
SMILES: CC(C)NCC(C(=O)N1CCN(c2ncnc3c2C(C)CC3O)CC1)c1ccc(Cl)cc1 (configuration not stated) + CC(Nc1ccc2c(c1)OCCn1cc(N3C(=O)OCC3C(F)F)nc1-2)C(N)=O
viability, T/C (second compound 0.00316 µM, first compound 0.0316 µM): 100%
viability, T/C (second compound 0.00316 µM, first compound 0.1 µM): 83%
viability, T/C (second compound 0.00316 µM, first compound 0.316 µM): 66.9%
viability, T/C (second compound 0.00316 µM, first compound 1 µM): 41.4%
viability, T/C (second compound 0.00316 µM, first compound 3.16 µM): 29.8%
viability, T/C (second compound 0.00316 µM, first compound 10 µM): 18.3%
viability, T/C (second compound 0.01 µM, first compound 0.0316 µM): 83.1%
viability, T/C (second compound 0.01 µM, first compound 0.1 µM): 88.3%
viability, T/C (second compound 0.01 µM, first compound 0.316 µM): 69.6%
viability, T/C (second compound 0.01 µM, first compound 1 µM): 42.5%
viability, T/C (second compound 0.01 µM, first compound 3.16 µM): 28.5%
viability, T/C (second compound 0.01 µM, first compound 10 µM): 20.1%
viability, T/C [7]: 87.4%
viability, T/C [8]: 82.3%
viability, T/C [9]: 67%
viability, T/C [10]: 36.9%
viability, T/C [31]: 29.3%
viability, T/C [32]: 17.9%
viability, T/C [11]: 74.8%
viability, T/C [12]: 56.4%
viability, T/C [13]: 47.9%
viability, T/C [14]: 35.8%
viability, T/C [33]: 23.8%
viability, T/C [34]: 15.7%
viability, T/C [15]: 54.9%
viability, T/C [16]: 49.6%
viability, T/C [17]: 49.4%
viability, T/C [18]: 37.3%
viability, T/C [35]: 25.4%
viability, T/C [36]: 16.6%
viability, T/C [19]: 43%
viability, T/C [20]: 42.2%
viability, T/C [21]: 37.3%
viability, T/C [22]: 29.2%
viability, T/C [37]: 22.8%
viability, T/C [38]: 14.7%

IC50 (curve of compound): > 10000 nM
SMILES: CNC(=O)c1ccc(N2C(=S)N(c3ccc(C#N)c(C(F)(F)F)c3)C(=O)C2(C)C)cc1F
viability, T/C (compound 0.1 µM): 92.5% [middle of 4 runs]
viability, T/C (compound 0.316 µM): 105% [middle of 4 runs]
viability, T/C (compound 1 µM): 96.4% [middle of 4 runs]
viability, T/C (compound 3.16 µM): 94.9% [middle of 4 runs]
viability, T/C (compound 10 µM): 94.5% [middle of 4 runs]
